For seven compounds, IC50 and Emax results are on record in US20190119200A1, “TERTIARY AMIDES AND METHOD OF USE” (AbbVie Inc., priority 2016, published 2019).

Usually IC50 stands for the concentration that gives 50% inhibition.

Assay type in all cases: cell-based
The target in test [1] is T1, LPAR1 (Homo sapiens, UniProt Q92633).
T1 construct: host or cells: U2OS
In words: LPAR1 FLIPR Assay. To be noted: U2OS cells stably expressing LPAR1, LPA (EC80), Calcium 6 FLIPR dye; for Emax: read-out: Maximum Inhibition. A digest of the protocol: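 U2OS cells stably expressing LPAR1 were loaded with Calcium 6 dye for 2 h at 37° C, preincubated 3 min with compound (11-point 3-fold series), then stimulated with LPA at EC80. Fluorescence at 515-575 nm was recorded by FLIPR; IC50 came from four-parameter logistic fits of ratio data.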

Test [2] deals with T1, LPAR1. As to the kind of experiment: LPAR1 Arrestin Assay (arrestin reporter assay). To be noted: U2OS cells stably expressing the LPAR1 receptor, 200 nM 18:1 LPA (EC80); for Emax: read-out: Maximum Inhibition. On the procedure: One day prior to the experiment, frozen U2OS cells stably expressing the LPAR1 receptor (Life Technologies, Grand Island, N.Y., #K1519A) were thawed, centrifuged at 1,000 rpm for 5 minutes to remove DMSO, and resuspended in FreeStyle™ media (Gibco, Grand Island, N.Y.). Forty microliters of cells were plated into PDL-coated 384-well plates (Greiner Bio-One, Monroe, N.C.) at 10,000 cells/well, and then the plates were incubated overnight in humidified 5% CO2 at 37° C. Test compounds were dissolved in DMSO, and 12-point, 1:3 dilution CRCs were prepared in duplicate; daughter plates were prepared by aliquoting 0.8 μL/well of test compound dilutions into 384-well plates. On the day of the assay, the daughter plates were diluted to 6× stocks using HEPES-buffered HBSS, then 10 μL of 6× test compounds were added to the cells, and the plates were incubated at 37° C. for one hour. After this 1 hour incubation, 10 μL of a 6× stock of the LPAR1 agonist, 18:1 LPA (Avanti Polar Lipids, Alabaster, Ala.), was prepared in HEPES-buffered HBSS+0.1% fatty acid-free BSA (Sigma, St. Louis, Mo.). The 6×LPA was added to all wells for a final concentration of 200 nM, which corresponds to the 18:1 LPA EC80 in this arrestin assay. The final DMSO concentration in the assay plate was 0.1%, and the final BSA concentration was 0.02%. After addition of LPA to all wells, the assay plates were incubated in humidified 5% CO2 at 37° C. for five hours. During the incubation period, 6× dye from the LiveBLAzer™-FRET B/G with CCF4-AM kit (Life Technologies, Grand Island, N.Y.) was prepared according to manufacturers' instructions. At the end of the 5 hour compound incubation, 10 μL of 6× dye was added to each well, and the assay plate was incubated for two hours in the dark at room temperature. Throughout the assay procedure, all volume additions were performed with a Biomek® NX liquid handler (Beckman Coulter, Indianapolis, Ind.). After the 2 hour dye-load, fluorescence was measured on an EnVision® Multilabel Plate Reader (Perkin Elmer, Waltham, Mass.) with an excitation filter at 409/20 nm and emission filters at 460/40 nm and 530/30 nm. Data processing was performed as recommended by the LiveBLAzer™-FRET B/G with CCF4-AM kit manual; all test compound CRCs were performed in duplicate with n≥3.
(In general: A reporter such as luciferase makes a cellular process visible.)

The test system of test [3] is LPA-induced MCP-1 in NRK-49F cells. In words: LPA-induced MCP-1 AlphaLISA assay. The settings on record: Rattus norvegicus, final LPA 10 μM, 7 hours; for Emax: read-out: Maximum Inhibition. The procedure, abridged: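 NRK-49F rat fibroblasts, serum-starved overnight, pretreated with compound for 30 min at 37 °C (1% DMSO final), then stimulated with 10 μM LPA final. MCP-1 in the supernatant was measured by mouse/rat CCL2 AlphaLISA. IC50 values came from four-parameter logistic fits of the ratio data.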
A general note: Bead proximity is the source of the signal in Alpha formats.

T1 sequence (Q92633 whole entry): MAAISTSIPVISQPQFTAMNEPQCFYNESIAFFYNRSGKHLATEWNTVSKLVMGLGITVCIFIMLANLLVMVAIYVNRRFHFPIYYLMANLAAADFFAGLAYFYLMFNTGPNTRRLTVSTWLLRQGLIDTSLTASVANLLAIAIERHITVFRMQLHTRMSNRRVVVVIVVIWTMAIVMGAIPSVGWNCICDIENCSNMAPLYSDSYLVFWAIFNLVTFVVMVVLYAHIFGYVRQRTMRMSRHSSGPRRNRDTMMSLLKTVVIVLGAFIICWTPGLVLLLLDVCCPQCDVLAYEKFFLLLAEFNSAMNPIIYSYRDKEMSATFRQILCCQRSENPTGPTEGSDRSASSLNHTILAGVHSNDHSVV

Take `COc1cc(C(=O)N(CCCc2ccccc2)CCOC(=O)NS(C)(=O)=O)cc(OC)c1C` [Example 184, 2-[(3,5-dimethoxy-4-methylbenzoyl)(3-phenylpropyl)amino]ethyl (methanesulfonyl)carbamate]: the IC50 on LPAR1 [1] stood at 131 nM; on LPAR1 [2], 1550 nM; in test [3], 5560 nM. The figures for the Emax (on LPAR1 [1]; at LPAR1 [2]; in test [3]) were 66%, 99% and 58%, respectively.
Turning to `COc1cc(C(=O)N(CCCc2ccccc2)CC(=O)NC(C)(C)C(=O)O)cc(OC)c1C` [Example 45, N-(3,5-dimethoxy-4-methylbenzoyl)-N-(3-phenylpropyl)glycyl-2-methylalanine], the half-inhibitory concentration (IC50) was 51 nM on LPAR1 [1], 494 nM against LPAR1 [2] and 5540 nM in test [3]. For the same compound, the Emax on LPAR1 [1] came out at 91%; at LPAR1 [2] it was 108%; in test [3] it was 71%.
As to `COc1cc(C(=O)N(CCCCC(=O)O)CCCc2ccccc2)cc(OC)c1F` [Example 99, 5-[(4-fluoro-3,5-dimethoxybenzoyl)(3-phenylpropyl)amino]pentanoic Acid], the figures for the 50% inhibitory concentration (IC50) (at LPAR1 [1]; against LPAR1 [2]; in test [3]) were 67 nM, 3250 nM and 7850 nM, respectively. In addition, the Emax on LPAR1 [1] amounted to 82%; at LPAR1 [2] it was 112%; in test [3] it was 56%.
In the case of `COc1cc(C(=O)N(CCCc2ccccc2)CCCC(O)C(=O)O)cc(OC)c1C` (stereo not drawn) [Example 151, 5-[(3,5-dimethoxy-4-methylbenzoyl)(3-phenylpropyl)amino]-2-hydroxypentanoic Acid], the figures for the IC50 (on LPAR1 [1]; against LPAR1 [2]; in test [3]) were 37 nM, 665 nM and 1630 nM, respectively. In addition, the Emax at LPAR1 [1] turned out to be 79%; on LPAR1 [2] it was 114%; in test [3], 79%.
For the compound `COc1cc(OC)cc(C(=O)N(CCCCC(=O)O)CCCc2cccc(F)c2)c1` [Example 90, 5-{(3,5-dimethoxybenzoyl)[3-(3-fluorophenyl)propyl]amino}pentanoic Acid], the IC50 on LPAR1 [1] stood at 37 nM; against LPAR1 [2] it was 675 nM; in test [3] it was 2500 nM. Besides, the Emax is 88% at LPAR1 [1], 108% at LPAR1 [2] and 76% in test [3].
As to `COc1ccc(C2(C(=O)N(CCCCC(=O)O)CCCc3ccccc3)COC2)cc1` [Example 89, 5-{[3-(4-methoxyphenyl)oxetane-3-carbonyl](3-phenylpropyl)amino}pentanoic Acid], the IC50 on LPAR1 [1] came to 36 nM; against LPAR1 [2], 445 nM; in test [3], 4700 nM. The results for the Emax (on LPAR1 [1]; on LPAR1 [2]; in test [3]) were 95%, 114% and 65%, respectively.
Turning to `COc1cc(C(=O)N(CCCCC(=O)O)CCCc2ccc(C)o2)c(F)c(OC)c1F` [Example 175, 5-{(2,4-difluoro-3,5-dimethoxybenzoyl)[3-(5-methylfuran-2-yl)propyl]amino}pentanoic Acid], the half-maximal inhibitory concentration (IC50) at LPAR1 [1] is 48 nM; against LPAR1 [2], 5680 nM; in test [3] it was 3940 nM. In addition, the Emax at LPAR1 [1] amounted to 73%; at LPAR1 [2], 119%; in test [3] it was 67%.
